Test results taken from patent publication US7067535B2, “5-Phenylbenzylamine compounds, process for their production and intermediates for their synthesis” (Tanabe Seiyaku Co., Ltd., priority 2000, dated 2006).
Counter-ions that a name gives are not always drawn.

Row | melting point | SMILES
1 | 212 to 216 °C (dec.) | COc1ccc(-c2ccc(F)cc2)cc1CN[C@H]1CCCN(Cc2n[nH]c(=O)o2)[C@H]1c1ccccc1 (as salt: hydrochloride) [Example 106, (2S,3S)-1-[5(4H)-oxo-1,3,4-oxadiazol-2-yl]methyl-2-phenyl-3-[[2-methoxy-5-(4-fluorophenyl)benzyl]amino]piperidine-dihydrochloride]
2 | 280 to 281 °C (dec.) | COc1ccc(-c2ccc(C#N)cc2F)cc1CN[C@H]1CCCN[C@H]1c1ccccc1 [Example 51, [2-methoxy-5-(2-fluoro-4-cyanophenyl)benzyl][(2S,3S)2-phenylpiperidin-3-yl]amine]
3 | 272 to 274 °C (dec.) | COc1ccc(-c2ccc(Cl)cc2)cc1CN[C@H]1CCCN[C@H]1c1ccccc1 [Example 7, [2-methoxy-5-(4-chlorophenyl)benzyl][(2S,3S)-2-phenylpiperidin-3-yl]amine]
4 | 200 to 204 °C (dec.) | COc1ccc(-c2ccc(F)cc2)cc1[C@@H](C)N[C@H]1CCCN[C@H]1c1ccccc1 (as salt: hydrochloride) [Example 101, [2-methoxy-5-(4-fluorophenyl)-(R)-α-methylbenzyl][(2S,3S)-2-phenylpiperidin-3-yl]amine dihydrochloride]
5 | 198 to 200 °C (dec.) | COc1ccc(-c2ccc(F)cc2)cc1CN[C@H]1CCCN(Cc2n[nH]c(=O)[nH]2)[C@H]1c1ccccc1 (as salt: hydrochloride) [Example 104, (2S,3S)-1-[5(4H)-oxo-1,2,4-triazol-3-yl]methyl-2-phenyl-3-[[2-methoxy-5-(4-fluorophenyl)benzyl]amino]piperidine dihydrochloride]
6 | 274 to 278 °C (dec.) | COc1ccc(-c2ccc(F)cc2)cc1[C@H](C)N[C@H]1CCCN[C@H]1c1ccccc1 (as salt: hydrochloride) [Example 102, [2-methoxy-5-(4-fluorophenyl)-(S)-α-methylbenzyl][(2S,3S)-2-phenylpiperidin-3-yl]amine dihydrochloride]
7 | 208 to 210 °C (dec.) | COc1ccc(-c2ccc(F)cc2)cc1CN[C@H]1CCCN(Cc2nnc[nH]2)[C@H]1c1ccccc1 (as salt: hydrochloride) [Example 103, (2S,3S)-1-(1,2,4-triazol-3-ylmethyl)-2-phenyl-3-[[2-methoxy-5-(4-fluorophenyl)benzyl]amino]piperidine trihydrochloride]
8 | 180 to 182 °C (dec.) | COc1ccc(-c2ccc(F)cc2)cc1CN[C@H]1CCCN(Cc2n[nH]c(=S)[nH]2)[C@H]1c1ccccc1 (as salt: hydrochloride) [Example 105, (2S,3S)-1-[5(4H)-thioxo-1,2,4-triazol-3-yl]methyl-2-phenyl-3-[[2-methoxy-5-(4-fluorophenyl)benzyl]amino]piperidinedihydrochloride]
9 | 298 to 300 °C | COc1ccc(-c2ccc(C#N)cc2)cc1CN[C@H]1CC[C@@H](C)N[C@H]1c1ccccc1 [Example 113, [2-methoxy-5-(4-cyanophenyl)benzyl][(2S,3S,6R)6-methyl-2-phenylpiperidin-3-yl]amine]
10 | 260 to 262 °C | COc1ccc(-c2ccccc2C(F)(F)F)cc1CN[C@H]1CCCN[C@H]1c1ccccc1.Cl.Cl (racemic)
11 | 301 to 302 °C (dec.) | COc1ccc(-c2ccc(C#N)cc2F)cc1CN[C@H]1CC[C@@H](C)N[C@H]1c1ccccc1 [Example 112, [2-methoxy-5-(2-fluoro-4-cyanophenyl)benzyl]-[(2S,3S,6R)-6-methyl-2-phenylpiperidin-3-yl]amine]
12 | 277 to 279 °C (dec.) | COc1ccc(-c2ccc(F)cc2)cc1CN[C@H]1CCCN[C@H]1c1ccccc1.Cl.Cl
13 | 277 to 278 °C (dec.) | COc1ccc(-c2ccc(C#N)cc2)cc1CN[C@H]1CCCN[C@H]1c1ccccc1 [Example 16, [2-methoxy-5-(4-cyanophenyl)benzyl][(2S,3S)-2-phenylpiperidin-3-yl]amine]
